In ChEMBL document CHEMBL5046276 (J Med Chem, 2022):

What was measured:
Plasmodium falciparum [1] = experiment: Antimalarial activity against asexual blood stage wild-type Plasmodium falciparum 3D7 assessed as parasite growth inhibition incubated for 72 hrs by SYBR Green I staining based fluorescence analysis; type: functional, organism-based; conditions: 3D7, 72 h
Plasmodium falciparum [2] = experiment: Antimalarial activity against asexual blood stage chloroquine-resistant Plasmodium falciparum Dd2 assessed as parasite growth inhibition incubated for 72 hrs by SYBR Green I staining based fluorescence analysis; type: functional, organism-based; conditions: Dd2, 72 h
[3] = Cytotoxicity against human HepG2 cells incubated for 72 hrs by CCK-8 assay
[4] = Cytotoxicity against HEK293T cells incubated for 72 hrs by CCK-8 assay; conditions: human
[5] = Selectivity index, ratio of IC50 for cytotoxicity against human HepG2 cells to IC50 for antimalarial activity against asexual blood stage wild-type Plasmodium falciparum 3D7; type: toxicity, cell-based; conditions: read-out: Ratio IC50
[6] = Metabolic stability in mouse liver microsomes assessed as half life at […] incubated for 45 mins in presence of NADPH by LC/MS analysis; type: ADME, Microsome; conditions: liver microsomes
[7] = Metabolic stability in mouse liver microsomes assessed as intrinsic clearance at […] incubated for 45 mins in presence of NADPH by LC/MS analysis; type: ADME, Microsome; conditions: read-out: CLH
[8] = Selectivity index, ratio of IC50 for cytotoxicity against HEK293T cells to IC50 for antimalarial activity against asexual blood stage wild-type Plasmodium falciparum 3D7; type: toxicity, cell-based; conditions: human, read-out: Ratio IC50
Plasmodium falciparum [9] = experiment: Antimalarial activity against asexual blood stage quinine-resistant Plasmodium falcipuram C2A assessed as parasite growth inhibition incubated for 72 hrs by SYBR Green I staining based fluorescence analysis; type: functional, organism-based
Plasmodium falciparum [10] = experiment: Antimalarial activity against asexual blood stage chloroquine-resistant Plasmodium falcipuram GB4 assessed as parasite growth inhibition incubated for 72 hrs by SYBR Green I staining based fluorescence analysis; type: functional, organism-based; conditions: GB4, 72 h
Plasmodium falciparum [11] = experiment: Antimalarial activity against asexual blood stage sulfadoxine-pyrimethamine/mefloquine-resistant Plasmodium falcipuram CP286 assessed as parasite growth inhibition incubated for 72 hrs by SYBR Green I staining based fluorescence analysis; type: functional, organism-based; conditions: CP286, 72 h
Plasmodium falciparum [12] = experiment: (§1) Antimalarial activity against wild-type Plasmodium falcipuram 3D7 infected in human RBC assessed as reduction in parasitemia in blood smear by measuring parasite survival ratio at ring stage at upto 700 nM incubated for 6 hrs followed by compound washout and replacement with fresh medium without compounds and measured after 66 hrs by ring stage survival assay; type: functional; conditions: dose nM <=700
Plasmodium falciparum [13] = experiment: as §1, with “ART-resistant” for “wild-type”, “6218 harbouring C580Y mutant” for “3D7”; type: functional; conditions: dose nM <=700
Plasmodium falciparum [14] = experiment: as §1, with “ART-resistant” for “wild-type”, “6320 harbouring C580Y mutant” for “3D7”; type: functional; conditions: dose nM <=700

Compound	IC50 (Plasmodium falciparum [1])	IC50 (Plasmodium falciparum [2])	IC50 at 72 h [3]	IC50 at 72 h [4]	selectivity ratio [5]	half-life [6]	CLint scaled [7]	selectivity ratio [8]	IC50 (Plasmodium falciparum [9])	IC50 (Plasmodium falciparum [10])	IC50 (Plasmodium falciparum [11])	Activity (Plasmodium falciparum [12])	Activity (Plasmodium falciparum [13])	Activity (Plasmodium falciparum [14])
Cl.O=C(NO)c1cnc(N2CCC3(CN(Cc4cnc5ccccc5c4)C3)C2)nc1	3.8 nM	2.58 nM	2040 nM	3620 nM	537	0.222 h	410 mL/min/kg	953	–	–	–	–	–	–
O=C(NO)c1cnc(N2CCC3(CN(Cc4cccc5ccccc45)C3)C2)nc1	4.46 nM	4.38 nM	> 770 nM	2700 nM	> 173	–	–	605	–	–	–	–	–	–
Cn1cc(CN2CC3(CCN(c4ncc(C(=O)NO)cn4)C3)C2)c2cnccc21	22 nM	14.2 nM	> 20000 nM	> 20000 nM	> 908	–	–	> 908	–	–	–	–	–	–
Cn1nc(CN2CC3(CCN(c4ncc(C(=O)NO)cn4)C3)C2)c2ccccc21	9.79 nM	12.7 nM	2130 nM	7310 nM	218	–	–	767	–	–	–	–	–	–
O=C(NO)c1cnc(N2CCC3(CN(Cc4cc5ccccc5s4)C3)C2)nc1	5.78 nM	8.57 nM	3610 nM	4590 nM	625	–	–	794	–	–	–	–	–	–
C[C@H]1[C@@H](O)O[C@@H]2O[C@@]3(C)CC[C@H]4[C@H](C)CC[C@@H]1[C@@]24OO3 [ARTENIMOL]	2.85 nM	2.78 nM	–	–	–	–	–	–	2.08 nM	2.34 nM	8.1 nM	–	–	–
C[C@@H]1CC[C@H]2[C@@H](C)C(=O)O[C@@H]3O[C@@]4(C)CC[C@@H]1[C@]32OO4 [ARTEMISININ]	–	–	–	–	–	–	–	–	–	–	–	0.1%	8%	8%
COc1ccc2c(CN3CC4(CCN(c5ncc(C(=O)NO)cn5)C4)C3)cn(C)c2c1	5.97 nM	5.1 nM	630 nM	700 nM	106	–	–	117	–	–	–	–	–	–
O=C(NO)c1cnc(N2CCC3(CN(Cc4cccc5cccnc45)C3)C2)nc1	13.2 nM	16.2 nM	2660 nM	5580 nM	202	–	–	423	–	–	–	–	–	–
O=C(NO)c1cnc(N2CCC3(CN(Cc4ccc(-c5ccccc5)cc4)C3)C2)nc1	22.9 nM	43.4 nM	3140 nM	3990 nM	137	–	–	174	–	–	–	–	–	–
O=C(NO)c1cnc(N2CCC3(CN(Cc4ccccc4)C3)C2)nc1	25.5 nM	66.9 nM	420 nM	1980 nM	16	–	–	78	–	–	–	–	–	–
O=C(NO)c1cnc(N2CCC3(CN(Cc4csc5ccccc45)C3)C2)nc1	10 nM	7.88 nM	490 nM	2580 nM	49	–	–	257	–	–	–	–	–	–
O=C(NO)c1cnc(N2CCC3(CN(Cc4cccs4)C3)C2)nc1	15.2 nM	59.1 nM	2510 nM	> 4930 nM	165	–	–	> 324	–	–	–	–	–	–
O=C(NO)c1cnc(N2CCC3(CN(Cc4c5ccccc5cc5ccccc45)C3)C2)nc1	9.31 nM	5.56 nM	31000 nM	460 nM	–	–	–	49	–	–	–	–	–	–
Cc1ccc2c(CN3CC4(CCN(c5ncc(C(=O)NO)cn5)C4)C3)cn(C)c2c1	4.45 nM	3.25 nM	500 nM	1100 nM	112	–	–	247	–	–	–	–	–	–
O=C(NO)c1cnc(N2CCC3(CN(Cc4ccncc4)C3)C2)nc1	137 nM	8420 nM	20000 nM	> 20000 nM	> 146	–	–	> 146	–	–	–	–	–	–
O=C(NO)c1cnc(N2CCC3(CN(Cc4ccoc4)C3)C2)nc1	37.6 nM	40.1 nM	6030 nM	16200 nM	160	–	–	431	–	–	–	–	–	–

Compound	IC50 (Plasmodium falciparum [1])	IC50 (Plasmodium falciparum [2])	IC50 at 72 h [3]	IC50 at 72 h [4]	selectivity ratio [5]	half-life [6]	CLint scaled [7]	selectivity ratio [8]	IC50 (Plasmodium falciparum [9])	IC50 (Plasmodium falciparum [10])	IC50 (Plasmodium falciparum [11])	Activity (Plasmodium falciparum [12])	Activity (Plasmodium falciparum [13])	Activity (Plasmodium falciparum [14])
O=C(NO)c1cnc(N2CCC3(CN(Cc4cccc5ccncc45)C3)C2)nc1	6.13 nM	5.84 nM	1840 nM	930 nM	300	–	–	152	–	–	–	–	–	–
Cn1cc(CN2CC3(CCN(c4ncc(C(=O)NO)cn4)C3)C2)c2ccccc21	4.59 nM	4.54 nM	720 nM	1520 nM	157	–	–	331	–	–	–	–	–	–
O=C(NO)c1cnc(N2CCC3(CN(CC4CCCC4)C3)C2)nc1	–	18.9 nM	1060 nM	–	64	–	–	–	–	–	–	–	–	–
Cn1cc(CN2CC3(CCN(c4ncc(C(=O)NO)cn4)C3)C2)c2cccnc21	10.4 nM	7.83 nM	> 12200 nM	6170 nM	> 1170	–	–	594	–	–	–	–	–	–
O=C(NO)c1cnc(N2CCC3(CN(Cc4ccc5ccccc5c4)C3)C2)nc1	9.89 nM	13.2 nM	2130 nM	4370 nM	215	–	–	442	–	–	–	–	–	–
O=C(NO)c1cnc(N2CCC3(CN(Cc4ccsc4)C3)C2)nc1	6.25 nM	3.86 nM	2460 nM	4620 nM	394	–	–	739	–	–	–	–	–	–
O=C(NO)c1cnc(N2CCC3(CN(Cc4ccc5ncccc5c4)C3)C2)nc1	17.1 nM	11.9 nM	1540 nM	1740 nM	90	–	–	102	–	–	–	–	–	–
Cl.Cn1cc(CN2CC3(CCN(c4ncc(C(=O)NO)cn4)C3)C2)c2ccc(Br)cc21	1.97 nM	2.39 nM	750 nM	720 nM	381	6.64 h	13.7 mL/min/kg	365	–	–	–	–	–	–
O=C(NO)c1cnc(N2CCC3(CN(Cc4cccnc4)C3)C2)nc1	47 nM	2230 nM	11400 nM	> 20000 nM	243	–	–	> 426	–	–	–	–	–	–
O=C(NO)c1cnc(N2CCC3(CN(Cc4cccc5cnccc45)C3)C2)nc1	16.6 nM	12.1 nM	2210 nM	1610 nM	133	–	–	97	–	–	–	–	–	–
Cn1cc(CN2CC3(CCN(c4ncc(C(=O)NO)cn4)C3)C2)c2ccncc21	4.57 nM	9.59 nM	> 20000 nM	> 20000 nM	> 1370	–	–	> 1370	–	–	–	–	–	–
O=C(NO)c1cnc(N2CCC3(CN(Cc4cnc5ccccn45)C3)C2)nc1	12.2 nM	8.5 nM	20000 nM	2370 nM	> 1640	–	–	195	–	–	–	–	–	–
O=C(NO)c1cnc(N2CCC3(CN(CC4CCCCC4)C3)C2)nc1	22.2 nM	19 nM	1030 nM	3560 nM	46	–	–	160	–	–	–	–	–	–
O=C(NO)c1cnc(N2CCC3(CN(Cc4cncc5ccccc45)C3)C2)nc1	8.63 nM	12.4 nM	2230 nM	8060 nM	258	–	–	934	–	–	–	–	–	–
O=C(NO)c1cnc(N2CCC3(CN(Cc4cc5ccccc5o4)C3)C2)nc1	7.16 nM	5.16 nM	3890 nM	5620 nM	543	–	–	785	–	–	–	–	–	–
O=C(NO)c1cnc(N2CCC3(CN(Cc4ccccn4)C3)C2)nc1	44.6 nM	30.8 nM	8370 nM	> 20000 nM	188	–	–	> 449	–	–	–	–	–	–
O=C(NO)c1cnc(N2CCC3(CN(Cc4ccco4)C3)C2)nc1	76.2 nM	116 nM	10900 nM	20000 nM	144	–	–	> 263	–	–	–	–	–	–
